Where a chain is given by its changes, count along the chain named.
Assays:
[1] = target: T1, Abl T315I kinase domain (unphosphorylated) (Mus musculus, UniProt P00520, T315I); test: Abl_T315I Bioassay (c-Abl PK/LDH coupled enzyme assay); format: biochemical; conditions: 10 μM ATP
T1 construct: purified and unphosphorylated T315I Abl kinase domain; made in house; host or cells: E. coli BL21(DE3) strains
T1 sequence (P00520 242-493 T315I limits assumed): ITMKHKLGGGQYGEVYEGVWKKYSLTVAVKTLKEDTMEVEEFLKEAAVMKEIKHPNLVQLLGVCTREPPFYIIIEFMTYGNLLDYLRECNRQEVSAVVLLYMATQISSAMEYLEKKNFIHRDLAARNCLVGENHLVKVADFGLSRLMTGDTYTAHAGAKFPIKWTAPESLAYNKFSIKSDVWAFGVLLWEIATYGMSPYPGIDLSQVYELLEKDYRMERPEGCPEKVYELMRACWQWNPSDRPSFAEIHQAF
Excerpt: Although the first of these examples uses the kinase domain of a mutant form of Abl T315I (“Abl T315I KD”), the kinase assays may use various forms of mutant and wild type enzymes, including, for example, the entire protein, the kinase domain, or a portion thereof (e.g. Abl Y393F). The kinases used in the assays may also be of varying phosphorylation states. In the c-Abl example, a mutant kinase at a zero phosphorylation state was used.
In the c-Abl Pyruvate Kinase (PK)/Lactate Dehydrogenase (LDH) Coupled Assay the protein kinase dependant phosphorylation of a substrate peptide was coupled to the oxidation of NADH. The oxidation of NADH to NAD+ was detected by monitoring a decrease in absorbance at 340 nm.
Materials: Abl substrate peptide=EAIYAAPFAKKK (SEQ ID NO:1)-OH (Biopeptide, San Diego, Calif.); βNADH (Sigma Cat#N-8129, FW=709.4); 2M MgCl2; 1M HEPES buffer, pH 7.5; Phosphoenolpyruvate (PEP) (Sigma Cat#P-7002, FW=234); Lactate dehydrogenase (LDH) (Worthington Biochemical Cat#2756); Pyruvate Kinase (PK) (Sigma Cat#P-9136); ATP (Sigma Cat#A-3377, FW=551); Greiner 384-well UV star plate; and purified and unphosphorylated T315I Abl kinase domain.
Stock Solutions: 10 mM NADH (7.09 mg/ml in miliQH2O) made fresh daily; 10 mM Abl substrate peptide (13.4 mg/ml in miliQH2O) stored at −20° C.; 100 mM HEPES buffer, pH 7.5 (5 ml 1M stock+45 ml miliQH2O); 100 mM MgCl2 (5 ml 2M MgCl2+95 ml dH2O); 100 mM PEP (23.4 mg/ml in dH2O) stored at −20° C.; 10 mM ATP (5.51 mg/ml in dH2O) stored at −20° C. (diluted 50 μl into total of 10 ml miliQH2O daily=50 μM ATP working stock); 1000 U/ml PK (U/mg varies with lot) flash-frozen under liquid N2 and stored at −80° C.; and 1000 U/ml LDH (U/mg varies with lot) flash-frozen under liquid N2 and stored at −80° C.
Standard Assay Setup for 384-well format (50 μl reaction): 300 μM NADH; 10 mM MgCl2; 2 mM PEP; 45 U/ml PK; 60 U/ml LDH; 200 μM Abl substrate peptide; 2.5 μl test compound (in DMSO); 2 μg/ml Abl kinase domain; 10 μM ATP; 100 mM HEPES buffer. Positive controls contained DMSO with no test compound. Negative controls contained 5 μl of 0.5M EDTA (50 mM in the assay). The dephosphorylated form of the c-Abl T315I mutant was used in the biochemical screening assays. The kinase reaction was initiated at time t=0 by the addition of ATP.
Activity was measured by following the time-dependent loss of NADH by absorbance spectroscopy at 340 nm. The linear portion of the resulting progress curve was then analyzed by linear regression to get the activity in absorbance units/time, reported as the slope of that best fit line (moles/unit time can be calculated from using molar extinction coefficient for NADH at 340 nm, 6250M^−1 cm^−1).
Data was evaluated using the equation: Z′=1−[3*(σ++σ−)/|μ+−μ−|](Zhang, et al., 1999 J Biomol Screening 4(2) 67-73), where μ denotes the mean and σ the standard deviation. The subscript designates positive or negative controls. The Z′ score for a robust screening assay should be ≧0.50. The typical threshold=μ+−3*σ+. Any value that falls below the threshold was designated a “hit”.
Dose response was analyzed using the equation: y=min+{(max−min)/(1+10^[compound]−logIC50)}, where y is the observed initial slope, max=the slope in the absence of inhibitor, min=the slope at infinite inhibitor, and the IC50 is the [compound] that corresponds to ½ the total observed amplitude (Amplitude=max−min).
To measure modulation, activation, or inhibition of Abl KD, a test compound was added to the assay at a range of concentrations. Inhibitors may inhibit Abl KD activity at an IC50 in the micromolar range, the nanomolar range, or, for example, in the subnanomolar range.
An open-reading frame for c-Abl was amplified from a Mus musculus (mouse) cDNA library prepared from freshly harvested mouse liver using a commercially available kit (Invitrogen) by PCR using the following primers: […]
The c-Abl T315I KD (kinase domain) was purified as follows. […]

[2] = target: T2, T315I mutant form of BCR-ABL in Ba/F3 cells (Homo sapiens, UniProt P00519, T315I); test: Abl_T315I p-ELISA Cellular Assay (BCR-ABL phospho-ELISA); format: cell-based; conditions: 60-120 minutes incubation
T2 construct: expressed in transfected cells; host or cells: Ba/F3 cells; the other entry of the earlier key: BCR (P11274, Breakpoint cluster region protein)
T2 sequence (P00519 242-493 T315I limits assumed): T1 sequence (P00520 242-493 T315I limits assumed) with S95N
Protocol: Cells (Ba/F3 cells transfected with WT BCR-ABL, other kinases, or T315I, Y253F, M351T, E255K, or other mutant forms of BCR-ABL) were grown in the absence of IL-3 at least ½ week before the assay. The day before assay, the cells were fed with fresh media so that at the time of assay the cells were in log phase. Ba/F3 cells that had been grown in the absence of IL-3 for at least ½ week were resuspended in RPMI 1640 so that each well of a 96-well plate would contain approximately 200,000 cells. Cells were distributed in a 96-well plate containing serially diluted concentrations of test compounds. Cells were typically incubated with or without test compounds for 60-120 minutes at 5% CO2, 37° C. The incubation was performed with or without other additives such as 10% FCS or 50% human plasma. After incubation of compounds, lysis buffer was added and incubated for 10-15 minutes; the lysate was cleared by centrifugation.
To make the ELISA plate, commercially available Anti-ABL antibodies (e.g. (Ab-3, Calbiochem OP20) were prepared at a concentration of 0.125 μg/ml in coating buffer (0.1M Na-carbonate, pH 9.5), and plated at 10 ml per plate (12.5 μl 100 μg/ml Ab/10 ml). In a high binding multi-well plate, 100 μl Ab in coating buffer were added to each well, and each plate was covered with a plate seal and incubated overnight at 4° C.
Excess antibody was removed and the ELISA plate was washed 3-4 times with 200 μl of wash buffer (0.05% Tween in PBS, pH 7.4). 150 μl of lysate (see above) were transferred to the ELISA plate. Plates were sealed and incubated 2 hours at room temperature. The detection antibody (e.g. HRP conjugated anti-pTyr or unconjugated α-p-Y 4G10, Upstate) was prepared in assay diluent. The antibody was diluted 1:1000 (stock=2 μg/μl, 200 μg in 100 μl; f.c.=2 μg/ml) in assay diluent and 10 ml of diluted antibody per plate were added. The lysate was removed from the ELISA plates, and wells were washed four times with 200 μl of wash buffer per well. 100 μl of detection antibody was added to each well; the plate was covered, and incubated 1 hr at room temperature (21° C.). Excess detection antibody was removed from the ELISA plates, and the wells were washed four times with 200 μl of wash buffer per well.
If necessary, (i.e. for unconjugated anti-pTyr antibody) secondary antibody (goat anti-rabbit HRP) was diluted 1:3000 in assay diluent (3.33 μl per 10 ml diluent) and added at 10 ml of diluted antibody per plate. Excess secondary antibody was removed from the ELISA plate, and the plate was washed four times with 200 μl per well of wash buffer.
Substrate Reagent A and Substrate Reagent B (Pierce Cat#37070 SuperSignal ELISA Pico Chemiluminescent Substrate) were added immediately before use (10 ml resultant solution per plate). 100 μl substrate were added per well, mixed for 1 minute, and chemiluminescent signal was measured with a luminometer.

SMILES	IC50 [1]	IC50 [2]
COc1ccccc1-c1c[nH]c2ncc(-c3cccc(C(=O)N4CCC(CO)CC4)c3)cc12 [AE6]	< 50 nM	< 100 nM
COc1ccccc1-c1c[nH]c2ncc(-c3cccc(C(=O)N4CCN(C(C)C)CC4)c3)cc12 [AE7]	< 50 nM	< 100 nM
Oc1cccc(-c2cnc3[nH]cc(-c4ccoc4)c3c2)c1 [AE47]	< 50 nM	–
COc1ccccc1-c1c[nH]c2ncc(-c3cncc(C(=O)N(C)CCN(C)C)c3)cc12 [AE5]	< 50 nM	< 100 nM
O=C(c1cccc(-c2cnc3[nH]cc(-c4ccccc4F)c3c2)c1)N1CCOCC1 [AE29]	< 50 nM	100 to 1000 nM
Oc1cccc(-c2cnc3[nH]cc(Sc4ccccc4)c3c2)c1 [AE51]	50 to 200 nM	–
CCc1ccccc1-c1c[nH]c2ncc(-c3cncc(C(=O)N(C)C)c3)cc12 [AE15]	< 50 nM	100 to 1000 nM
COc1ccccc1-c1c[nH]c2ncc(-c3csc(C(=O)N4CCN(C)CC4)c3)cc12 [AE4]	< 50 nM	100 to 1000 nM
COc1ccccc1-c1c[nH]c2ncc(-c3ccc4c(c3)C(=O)NCC(=O)N4)cc12 [AE12]	< 50 nM	–
COc1ccccc1-c1c[nH]c2ncc(-c3c[nH]cn3)cc12 [AE19]	< 50 nM	100 to 1000 nM
CCOc1ccccc1-c1c[nH]c2ncc(-c3cncc(C(=O)NC)c3)cc12 [AE17]	< 50 nM	–
CCc1ccccc1-c1c[nH]c2ncc(-c3ccnc(F)c3)cc12 [AE18]	< 50 nM	100 to 1000 nM
COc1ccccc1-c1c[nH]c2ncc(-c3cccc(C(=O)N4CCN(CCN5CCOCC5)CC4)c3)cc12 [AE24]	< 50 nM	–
COc1ccccc1-c1c[nH]c2ncc(-c3cccc(C(=O)N(C)CCN(C)C)c3)cc12 [AE23]	< 50 nM	–
COc1cccc(OC)c1-c1c[nH]c2ncc(-c3cccc(C(=O)N4CCOCC4)c3)cc12 [AE37]	< 50 nM	< 100 nM
CCOc1ccccc1-c1c[nH]c2ncc(-c3cncc(C(=O)N(C)C)c3)cc12 [AE16]	< 50 nM	100 to 1000 nM
COc1ccccc1-c1c[nH]c2ncc(-c3ccc(O)c(C(=O)N(C)CCN(C)C)c3)cc12 [AE25]	< 50 nM	< 100 nM

— patent US7709645B2, “Pyrrolo-pyridine kinase modulators” (SGX Pharmaceuticals, Inc., priority 2004, dated 2010)
